Source: patent US9745328B2, “Flap modulators” (JANSSEN PHARMACEUTICA NV, priority 2013, dated 2017)
Where a name gives a salt, the structure may show the parent alone. Read-outs that look alike come from different tables or passages of the source.

Experiments:
[1] = biological target: human FLAP (Homo sapiens (Human), UniProt P20292); experiment: FLAP binding assay (HTRF format)
Method in brief: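 Averaged over two plates (duplicate wells per plate); output given as HTRF ratio.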

[2] = tested on: leukotriene pathway in human whole blood (LTB4); experiment: Human whole blood assay (LTB4 levels after calcium ionophore A23187 stimulation); format: cell-based
Method: The ability of the compounds of the present invention to treat a FLAP-mediated disease and/or disorder, or associated symptoms or complications thereof, was determined using the following procedures. Binding assay data represent the average value obtained from two different assay plates, with samples run in duplicate on each plate. Human whole blood assay data represent a single replicate on an assay plate using whole blood from at least one healthy donor.
An in vitro cellular assay was performed using human whole blood collected in heparin-containing tubes, which was used to test the ability of compounds to modulate the leukotriene pathway in human whole blood. The blood was diluted 1:1 in RPMI medium, pre-incubated for 15 min at 37° Celsius with test compounds at various concentrations, and then stimulated with calcium ionophore, A23187 (7 μg/mL), for 30 min at 37° Celsius. The samples were then centrifuged and plasma was removed. The plasma was diluted in assay buffer and LTB4 levels were measured using a commercial kit (Enzo Life Sciences). The concentration of each compound that was required for half-maximal inhibition (modulation) of recombinant enzyme activity (IC50) was calculated by a 4-parameter equation using the program GraphPad Prism (GraphPad software).

[3] = human FLAP wild type, Table 6 (additional runs)
[4] = Homo sapiens, human whole blood diluted 1:1, A23187 stimulation; Table 6 (additional runs); read-out: Human Whole Blood LTB4 IC50 1:1
[5] = Table 6 (additional runs), human FLAP wild type
[6] = Homo sapiens, Table 6 (additional runs); human whole blood diluted 1:1, A23187 stimulation; read-out: Human Whole Blood LTB4 IC50 1:1

Sequence of human FLAP (P20292 whole entry): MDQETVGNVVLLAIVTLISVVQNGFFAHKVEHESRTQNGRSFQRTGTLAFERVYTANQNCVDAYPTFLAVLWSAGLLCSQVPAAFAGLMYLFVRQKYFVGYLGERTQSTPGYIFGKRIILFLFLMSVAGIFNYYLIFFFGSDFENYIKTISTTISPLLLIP

Structure (SMILES)	Ki [1, 3]	IC50 [2, 4]	Ki [1, 5]	IC50 ([2]; Table 6 (additional runs); human whole blood diluted 1:1, A23187 stimulation; read-out: Human Whole Blood LTB4 IC50 1:1)	IC50 [2, 6]
Nc1cnc(-c2ccc(-c3ccccc3-c3ccnc(N)n3)cc2F)cn1 [Example 868, 4-[4′-(5-Aminopyrazin-2-yl)-3′-fluorobiphenyl-2-yl]pyrimidin-2-amine]	0.0215 µM	0.345 µM			
C[C@@H](NS(=O)(=O)c1ccccc1-c1ccc(-c2cnc(N)cn2)c(F)c1)C(F)(F)F [Example 20, (S)-4′-(5-Aminopyrazin-2-yl)-3′-fluoro-N-[(S)-2,2,2-trifluoro-1-methylethyl]biphenyl-2-sulfonamide]			0.0009 µM	0.0085 µM	
Nc1cnc(-c2ccc(-c3ccccc3S(=O)(=O)NC[C@H](O)c3ccccc3)cc2F)cn1 [Example 117, (R)-4′-(5-aminopyrazin-2-yl)-3′-fluoro-N-(2-hydroxy-2-phenylethyl)-[1,1′-biphenyl]-2-sulfonamide]			0.0007 µM		0.0066 µM
Nc1cnc(-c2ccc(-c3ccccc3S(=O)(=O)N3CCC(CO)CC3)cc2F)cn1 [Example 68, (1-{[4′-(5-Aminopyrazin-2-yl)-3′-fluorobiphenyl-2-yl]sulfonyl}piperidin-4-yl)methanol]			0.0011 µM		0.0109 µM
Nc1cnc(-c2ccc(-c3ccccc3S(=O)(=O)N3CCCCC3)cc2F)cn1 [Example 43, 5-[3-fluoro-2′-(piperidin-1-ylsulfonyl)biphenyl-4-yl]pyrazin-2-amine]			0.003 µM		0.0381 µM
Nc1cnc(-c2ccc(-c3ccccc3S(=O)(=O)c3ccccc3)cc2F)cn1 [Example 477, 5-[3-Fluoro-2′-(phenylsulfonyl)biphenyl-4-yl]pyrazin-2-amine]	0.0147 µM	0.268 µM			
CNc1ncc(-c2ccccc2-c2ccc(-c3cnc(N)nc3)c(F)c2)cn1 [Example 866, 5-[4′-(2-Aminopyrimidin-5-yl)-3′-fluorobiphenyl-2-yl]-N-methylpyrimidin-2-amine]	0.171 µM	0.539 µM			
Nc1cnc(-c2ccc(-c3cccnc3S(=O)(=O)C3CC3)cc2F)cn1 [Example 829, 5-{4-[2-(Cyclopropylsulfonyl)pyridin-3-yl]-2-fluorophenyl}pyrazin-2-amine formic acid salt]	0.0057 µM	0.009 µM			
CCCCCCS(=O)(=O)c1ccccc1-c1ccc(-c2cnc(N)cn2)c(F)c1 [Example 198, 5-[3-Fluoro-2′-(hexylsulfonyl)biphenyl-4-yl]pyrazin-2-amine]			0.0721 µM		0.819 µM
Nc1cnc(-c2ccc(-c3ccccc3S(=O)(=O)N3CCC(O)CC3)cc2F)cn1 [Example 67, 1-{[4′-(5-Aminopyrazin-2-yl)-3′-fluorobiphenyl-2-yl]sulfonyl}piperidin-4-ol]			0.0042 µM		0.0168 µM
CC(C)(C)NS(=O)(=O)c1ccccc1-c1ccc(-c2cnc(N)c(Cl)n2)c(F)c1 [Example 441, 4′-(5-Amino-6-chloropyrazin-2-yl)-N-tert-butyl-3′-fluorobiphenyl-2-sulfonamide]	0.0008 µM	0.0065 µM			
Nc1cnc(-c2ccc(-c3ccccc3S(=O)(=O)N3CCNCC3)cc2F)cn1 [Example 46, 5-[3-Fluoro-2′-(piperazin-1-ylsulfonyl)biphenyl-4-yl]pyrazin-2-amine]			0.0615 µM		0.177 µM
NCCn1cc(-c2ccccc2-c2ccc(-c3cnc(N)cn3)c(F)c2)cn1 [Example 864, 5-{2′-[1-(2-Aminoethyl)-1H-pyrazol-4-yl]-3-fluorobiphenyl-4-yl]pyrazin-2-amine]	0.216 µM	0.413 µM			
CC(C)(C)NS(=O)(=O)c1ccccc1-c1ccc(-c2cnc3[nH]ccc3c2)c(F)c1 [Example 367, N-tert-Butyl-3′-fluoro-4′-(1H-pyrrolo[2,3-b]pyridin-5-yl)biphenyl-2-sulfonamide]			0.0009 µM		0.0056 µM
Nc1cnc(-c2ccc(-c3ccccc3S(=O)(=O)N[C@@H]3c4ccccc4C[C@H]3O)cc2F)cn1 [Example 159, 4′-(5-aminopyrazin-2-yl)-3′-fluoro-N-((1R,2R)-2-hydroxy-2,3-dihydro-1H-inden-1-yl)-[1,1′-biphenyl]-2-sulfonamide]			0.0008 µM		0.0013 µM
Nc1ncc(-c2ccc(-c3ccccc3-c3ccnc(N)n3)cc2F)cn1 [Example 867, 4-[4′-(2-Aminopyrimidin-5-yl)-3′-fluorobiphenyl-2-yl]pyrimidin-2-amine]	0.246 µM	0.793 µM			
CC(=O)N1CCC(S(=O)(=O)c2ncccc2-c2ccc(-c3cnc(N)cn3)c(F)c2)CC1 [Example 816, 1-((3-(4-(2-Aminopyrazin-5-yl)-3-fluorophenyl)pyridine-2-yl)sulfonyl)piperidin-1-yl)ethanone hydrogen chloride salt]	0.037 µM	0.061 µM			
CC(C)N(CCO)S(=O)(=O)c1ccccc1-c1ccc(-c2cnc(N)cn2)c(F)c1 [Example 141, 4′-(5-Aminopyrazin-2-yl)-3′-fluoro-N-(2-hydroxyethyl)-N-(1-methylethyl)biphenyl-2-sulfonamide]			0.0007 µM		0.0033 µM
Nc1cnc(-c2ccc(-c3ccccc3S(=O)(=O)N[C@H]3c4ccccc4C[C@@H]3O)cc2F)cn1 [Example 158]			0.0006 µM		0.0014 µM

Second part, the molecule after the results:

Ki [1, 3]	IC50 [2, 4]	Ki [1, 5]	IC50 ([2]; Table 6 (additional runs); human whole blood diluted 1:1, A23187 stimulation; read-out: Human Whole Blood LTB4 IC50 1:1)	IC50 [2, 6]	Structure (SMILES)
0.0083 µM	0.053 µM				CNc1ncc(-c2ccccc2-c2ccc(-c3cnc(N)cn3)c(F)c2)cn1 [Example 872, 5-[4′-(5-Aminopyrazin-2-yl)-3′-fluorobiphenyl-2-yl]-N-methylpyrimidin-2-amine]
0.007 µM	0.0903 µM				Nc1cnc(-c2ccc(-c3cccnc3S(=O)(=O)c3ccccc3)cc2F)cn1 [Example 897, 5-{2-Fluoro-4-[2-(phenylsulfonyl)pyridin-3-yl]phenyl}pyrazin-2-amine]
0.17 µM	0.851 µM				N#CCn1cc(-c2ccccc2-c2ccc(-c3cnc(N)nc3)c(F)c2)cn1 [Example 875, {4-[4′-(2-Aminopyrimidin.-5-yl)-3′-fluorobiphenyl-2-yl]-1H-pyrazol-yl}acetonitrile]
0.0387 µM	0.0634 µM				CC(=O)N1CCCC(S(=O)(=O)c2ncccc2-c2ccc(-c3cnc(N)cn3)c(F)c2)C1 (stereo not drawn) [Example 903, 5-(4-{2-[(1-Acetylpiperidin-3-yl)sulfonyl]pyridin-3-yl}-2-fluorphenyl)pyrazin-2-amine]
0.0058 µM	> 1 µM				Nc1cnc(-c2ccc(-c3ccccc3OCc3ccc(C(=O)O)cc3)cc2F)cn1 [Example 886, 4-(([4′-(5-Aminopyrazin-2-yl)-3′-fluorobiphenyl-2-yl]oxy}methyl)benzoic acid]
0.0184 µM	0.0886 µM				CC(C)S(=O)(=O)c1nc(C(F)(F)F)ccc1-c1ccc(-c2cnc(N)nc2)c(F)c1 [Example 902, 5-(2-Fluoro-4-{2-[(1-methylethyl)sulfonyl]-6-(trifluoromethyl)pyridin-3-yl}phenyl)pyrimidin-2-amine]
0.167 µM	0.0688 µM				Nc1ncc(-c2ncc(-c3ccccc3S(=O)(=O)NCCO)cc2F)cn1 [Example 882, 2-[6-(2-Aminopyrimidin-5-yl)-5-fluoropyridin-3-yl]-N-(2-hydroxyethyl)benzenesulfonamide]
0.0037 µM	0.0623 µM				NC(=O)c1ccc(Oc2ccccc2-c2ccc(-c3cnc(N)nc3)c(F)c2)cc1 [Example 890, 4-{[4′-(2-Aminopyrimidin-5-yl)-3′-fluorobiphenyl-2-yl]oxy)benzamide]
0.0231 µM	0.336 µM				Nc1cnc(-c2ccc(-c3ccccc3-c3cnsc3)cc2F)cn1 [Example 873, 5-(3-Fluoro-2′-isothiazol-4-ylbiphenyl-4-yl)pyrazin-2-amine]
0.0018 µM	0.0016 µM				CC(C)S(=O)(=O)c1nc(C(F)(F)F)ccc1-c1ccc(-c2cnc(N)cn2)c(F)c1 [Example 901, 5-(2-Fluoro-4-{2-[(1-methylethyl)sulfonyl]-6-(trifluoromethyl)pyridin-3-yl}phenyl)pyrazin-2-amine]
0.0221 µM	0.466 µM				Nc1cnc(-c2ccc(-c3cccnc3Oc3cccnc3)cc2F)cn1 [Example 896, 5-{2-Fluoro-4-[2-(pyridin-3-yloxy)pyridin-3-yl]phenyl}pyrazin-2-amine]
0.166 µM	0.0287 µM				CC(=O)N1CCC(S(=O)(=O)c2nc(C(F)(F)F)ccc2-c2ccc(-c3cnc(N)nc3)c(F)c2)CC1 [Example 911, 5-(4-{2-[(1-Acetylpiperidin-4-yl)sulfonyl]-6-(trifluoromethyl)pyridin-3-yl}-2-fluorophenyl)pyrimidin-2-amine]
0.255 µM	0.105 µM				Nc1cnc(-c2ccc(-c3cccnc3S(=O)(=O)C3CCN(CCO)CC3)cc2F)cn1 [Example 904, 2-[4-({3-[4-(5-Aminopyrazin-2-yl)-3-fluorophenyl]pyridin-2-yl}sulfonyl)pipendin-1-yl]ethanol]
0.0803 µM	1.08 µM				Nc1ncc(-c2ccc(-c3ccccc3-c3cn[nH]c3)cc2F)cn1 [Example 876, 5-[3-Fluoro-2′-(1H-pyrazo-4-yl)biphenyl-4-yl]pyrimidin-2-amine]
